One data set relates to Raji. In words: Antiproliferative activity against human Raji cells after 48 hrs by CCK-8 assay.
Data set [1] concerns Ramos. In words: Cell cycle arrest in human Ramos cells assessed as accumulation at G2/M phase at 5 uM after 48 hrs by propidium iodide staining based flow cytometry (reference value: 1.58%). The format is functional. (Flow cytometry measures light scatter and fluorescence of single cells or particles in a stream.)
For data set [2], the system named is Ramos. In words: Cell cycle arrest in human Ramos cells assessed as accumulation at G2/M phase at 10 uM after 48 hrs by propidium iodide staining based flow cytometry (reference value: 1.58%). In kind it is functional.
The test system of data set [3] is Ramos. In words: Induction of apoptosis in human Ramos cells assessed as late apoptotic cells at 5 uM after 48 hrs by Annexin V-FITC/propidium iodide staining based flow cytometry (reference value: 3%). The format is functional.
The subject of data set [4] is Ramos. In words: Cell cycle arrest in human Ramos cells assessed as accumulation at S phase at 20 uM after 48 hrs by propidium iodide staining based flow cytometry (reference value: 42.23%). The format is functional.
For data set [5], the system named is Ramos. In words: Induction of apoptosis in human Ramos cells assessed as early apoptotic cells at 10 uM after 48 hrs by Annexin V-FITC/propidium iodide staining based flow cytometry (reference value: 1.7%). The format is functional.
For data set [6], the system named is Ramos. In words: Induction of apoptosis in human Ramos cells assessed as viable cells at 10 uM after 48 hrs by Annexin V-FITC/propidium iodide staining based flow cytometry (reference value: 94.3%). In kind it is functional. The note with it: read-out: Activity.
In data set [7] the test system is Ramos. Description: Induction of apoptosis in human Ramos cells assessed as early apoptotic cells at 5 uM after 48 hrs by Annexin V-FITC/propidium iodide staining based flow cytometry (reference value: 1.7%). The format is functional.
Data set [8] has as its system Ramos. Description: Cell cycle arrest in human Ramos cells assessed as accumulation at S phase at 10 uM after 48 hrs by propidium iodide staining based flow cytometry (reference value: 42.23%). In kind it is functional.
Data set [9] relates to Ramos. In words: Induction of apoptosis in human Ramos cells assessed as viable cells at 20 uM after 48 hrs by Annexin V-FITC/propidium iodide staining based flow cytometry (reference value: 94.3%). The note with it: read-out: Activity. In kind it is functional.
Data set [10] relates to Ramos. In words: Cell cycle arrest in human Ramos cells assessed as accumulation at G2/M phase at 20 uM after 48 hrs by propidium iodide staining based flow cytometry (reference value: 1.58%). In kind it is functional.
In data set [11] the test system is Ramos. Description: Cell cycle arrest in human Ramos cells assessed as accumulation at G0/G1 phase at 10 uM after 48 hrs by propidium iodide staining based flow cytometry (reference value: 56.19%). In kind it is functional.
Data set [12] relates to Ramos. Description: Induction of apoptosis in human Ramos cells assessed as necrotic cells at 20 uM after 48 hrs by Annexin V-FITC/propidium iodide staining based flow cytometry (reference value: 1%). In kind it is functional.
Data set [13] has as its system Ramos. In words: Induction of apoptosis in human Ramos cells assessed as necrotic cells at 5 uM after 48 hrs by Annexin V-FITC/propidium iodide staining based flow cytometry (reference value: 1%). In kind it is functional.
The test system of data set [14] is Ramos. In words: Cell cycle arrest in human Ramos cells assessed as accumulation at G0/G1 phase at 20 uM after 48 hrs by propidium iodide staining based flow cytometry (reference value: 56.19%). The format is functional.
Data set [15] relates to Ramos. Description: Induction of apoptosis in human Ramos cells assessed as early apoptotic cells at 20 uM after 48 hrs by Annexin V-FITC/propidium iodide staining based flow cytometry (reference value: 1.7%). The format is functional.
Data set [16] relates to Ramos. Description: Induction of apoptosis in human Ramos cells assessed as viable cells at 5 uM after 48 hrs by Annexin V-FITC/propidium iodide staining based flow cytometry (reference value: 94.3%). The conditions noted are these: read-out: Activity. The format is functional.
Data set [17] has as its system Ramos. Description: Cell cycle arrest in human Ramos cells assessed as accumulation at S phase at 5 uM after 48 hrs by propidium iodide staining based flow cytometry (reference value: 42.23%). The format is functional.
The test system of data set [18] is Ramos. In words: Induction of apoptosis in human Ramos cells assessed as late apoptotic cells at 10 uM after 48 hrs by Annexin V-FITC/propidium iodide staining based flow cytometry (reference value: 3%). In kind it is functional.
For data set [19], the system named is Ramos. In words: Cell cycle arrest in human Ramos cells assessed as accumulation at G0/G1 phase at 5 uM after 48 hrs by propidium iodide staining based flow cytometry (reference value: 56.19%). In kind it is functional.
The target of data set [20] is T1, Tyrosine-protein kinase BTK (Homo sapiens, UniProt Q06187). In words: Irreversible inhibition of N-terminal His-tagged full length human recombinant BTK expressed in baculovirus infected Sf9 insect cells using Poly (4:1 Glu, Tyr) peptide substrate assessed as luminescence of compound linked enzyme at 5000 nmol/L incubated for 60 mins by ADP-Glo kinase assay (reference value: 9976).

Data set [21] has as its system Ramos. In words: Induction of apoptosis in human Ramos cells assessed as late apoptotic cells at 20 uM after 48 hrs by Annexin V-FITC/propidium iodide staining based flow cytometry (reference value: 3%). In kind it is functional.
Data set [22] deals with T1, Tyrosine-protein kinase BTK. Description: Inhibition of N-terminal His-tagged full length human recombinant BTK expressed in baculovirus infected Sf9 insect cells using Poly (4:1 Glu, Tyr) peptide substrate incubated for 60 mins by ADP-Glo luminescence assay. In general terms: In ADP-Glo the light output rises with the ADP produced.
Data set [23] has as its system Ramos. In words: Antiproliferative activity against human Ramos cells after 48 hrs by CCK-8 assay. In kind it is functional, cell-based.
In the next data set the test system is PBMC. Description: Cytotoxicity against human PBMC assessed as change in cell morphology at <20 uM after 24 hrs by phase contrast microscopy. The format is cell-based.
Data set [24] relates to Ramos. In words: Induction of apoptosis in human Ramos cells assessed as necrotic cells at 10 uM after 48 hrs by Annexin V-FITC/propidium iodide staining based flow cytometry (reference value: 1%). In kind it is functional.

A value given as a limit tells only on which side of the number the result lay.

What is called IC50 is the concentration needed to halve the response being measured.

T1 sequence (Q06187 whole entry): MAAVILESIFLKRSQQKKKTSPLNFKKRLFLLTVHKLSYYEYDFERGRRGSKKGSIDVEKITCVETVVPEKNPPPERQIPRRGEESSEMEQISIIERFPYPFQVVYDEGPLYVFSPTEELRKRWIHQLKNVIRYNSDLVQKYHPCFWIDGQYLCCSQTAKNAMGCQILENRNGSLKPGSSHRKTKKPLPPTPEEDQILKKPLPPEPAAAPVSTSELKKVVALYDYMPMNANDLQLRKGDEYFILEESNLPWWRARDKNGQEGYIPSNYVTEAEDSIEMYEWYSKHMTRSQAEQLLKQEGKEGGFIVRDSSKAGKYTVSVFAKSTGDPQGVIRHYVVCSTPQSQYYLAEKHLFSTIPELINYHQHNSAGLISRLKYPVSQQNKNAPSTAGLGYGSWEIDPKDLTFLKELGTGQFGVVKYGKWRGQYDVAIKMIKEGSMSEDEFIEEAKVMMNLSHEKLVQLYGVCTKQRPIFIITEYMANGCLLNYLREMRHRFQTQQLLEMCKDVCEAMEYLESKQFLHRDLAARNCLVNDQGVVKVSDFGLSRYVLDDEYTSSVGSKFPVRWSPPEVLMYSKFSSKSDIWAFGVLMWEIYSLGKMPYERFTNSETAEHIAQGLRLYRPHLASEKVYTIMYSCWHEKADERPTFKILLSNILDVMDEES

For the compound `C=CC(=O)Nc1cccc(Nc2nc(Nc3ccc(OCC4CCCO4)cc3)ncc2Cl)c1` (stereo not given), the half-inhibitory concentration (IC50) amounted to 19.1 µM with Raji, 0.0121 µM in [22] and 10.5 µM with Ramos [23]. Also, the Activity in the data set with Ramos [1] came out at 0%; with Ramos [2], 0%; with Ramos [3] it was 27%; with Ramos [4], 28.39%; in the data set with Ramos [5], 12.6%; in the data set with Ramos [7], 11%. The Activity is 37% in the data set on Ramos [8]; 0.86% in the data set with Ramos [10]; 63% in the data set on Ramos [11]; 0.1% in the data set with Ramos [12]; 2.2% in the data set with Ramos [13]; 70.75% with Ramos [14]. Further, the Activity with Ramos [15] is 26.4%; with Ramos [17], 46.82%; in the data set on Ramos [18], 34.2%; with Ramos [19], 53.18%; in [20] it was 383 RLU; in the data set on Ramos [21] it was 57.2%. Besides, the figures for the Activity result in the data set with PBMC and in the data set with Ramos [24] were “Non-Toxic” and 1.2%, respectively. The viability at 10 µM with Ramos [6] came to 50%. The viability at 20 µM in the data set on Ramos [9] was 16.2%. Besides, the viability at 5 µM in the data set with Ramos [16] was determined as 50.1%.
Take `C=CC(=O)Nc1cccc(Nc2nc(Nc3ccc(NC(=O)CN(CCOC)CCOC)c(C)c3)ncc2Cl)c1`: the results for the 50% inhibitory concentration (IC50) (with Raji; in data set [22]; in the data set with Ramos [23]) were 35.6 µM, 0.02 µM and 19.6 µM, respectively.
The like results for `C=CC(=O)Nc1cccc(Nc2nc(Nc3ccc(OCC(=O)OCC4CCCO4)cc3)ncc2Cl)c1` (stereo not given) were, in that order, 9.4 µM, 0.00023 µM and more than 40 µM.
For the compound `C=CC(=O)N1CCC[C@@H](n2nc(-c3ccc(Oc4ccccc4)cc3)c3c(N)ncnc32)C1` [IBRUTINIB], the Activity with Ramos [2] worked out at 0.15%; with Ramos [5], 37%; in the data set on Ramos [8] it was 53.5%; with Ramos [11] it was 46.35%; with Ramos [24], 0.1%. Also, the viability at 10 µM in the data set with Ramos [6] turned out to be 52%. Half-maximal inhibition in the data set on Ramos [23] (IC50) required 12.6 µM.
Turning to `C=CC(=O)Nc1cccc(Nc2nc(Nc3ccc(NC(=O)CN(CCOC)CCOC)cc3)ncc2Cl)c1`, the IC50 in the data set on Raji worked out at 19.9 µM; in data set [22], 0.0226 µM; in the data set on Ramos [23], 14.8 µM.
For `C=CC(=O)Nc1cccc(Nc2nc(Nc3ccc(OCCOC)cc3)ncc2F)c1` [SPEBRUTINIB], the half-inhibitory concentration (IC50) was 29.4 µM with Raji and 20.9 µM in the data set with Ramos [23]. In addition, the Activity in the data set with Ramos [2] was 20.91%; in the data set with Ramos [5], 21.2%; with Ramos [8] it was 47.9%; with Ramos [11], 31.02%; in the data set with Ramos [18], 20.4%; in the data set with Ramos [24], 4.3%. Further, the viability at 10 µM in the data set on Ramos [6] is 54%.
Take `C=CC(=O)Nc1cccc(Nc2nc(Nc3ccc(OCC4CCCO4)cc3)ncc2F)c1` (stereo not given): the IC50 in the data set with Raji turned out to be 38.6 µM; in data set [22], 0.0224 µM; in the data set on Ramos [23], 22.3 µM.
The like results for `C=CC(=O)Nc1cccc(Nc2nc(Nc3ccc(NC(=O)CN(CCOC)CCOC)c(OC)c3)ncc2Cl)c1` were, in that order, 20.9 µM, more than 0.1 µM and 11 µM.
The like results for `C=CC(=O)Nc1cccc(Nc2nc(Nc3ccc(NC(=O)CN(CCOC)CCOC)cc3)ncc2F)c1` were, in that order, 36.9 µM, 0.0913 µM and 35.6 µM.
Turning to `C=CC(=O)Nc1cccc(Nc2nc(Nc3ccc(OCC(=O)N(CCOC)CCOC)cc3)ncc2F)c1`, the IC50 with Raji is 36 µM; in [22] it was 0.0272 µM; in the data set on Ramos [23], more than 40 µM.
In the case of `C=CC(=O)Nc1cccc(Nc2nc(Nc3ccc(N(CCOC)CCOC)cc3)ncc2Cl)c1`, the half-inhibitory concentration (IC50) amounted to 30.5 µM in the data set on Raji, 0.00494 µM in [22] and 13 µM in the data set on Ramos [23].
The like results for `C=CC(=O)Nc1cccc(Nc2nc(Nc3ccc(OCC(=O)N(CCOC)CCOC)c(Cl)c3)ncc2Cl)c1` were, in that order, 19.3 µM, more than 0.1 µM and 16.9 µM.
The like results for `C=CC(=O)Nc1cccc(Nc2nc(Nc3ccc(N(CCOC)CCOC)cc3)ncc2F)c1` were, in that order, 23.8 µM, 0.00712 µM and 18.1 µM.
Consider `C=CC(=O)Nc1cccc(Nc2nc(Nc3ccc(OCC(=O)N(CCOC)CCOC)cc3)ncc2Cl)c1`, for which the concentration for half-maximal inhibition (IC50) in the data set with Raji is 20.1 µM; in [22] it was 0.00283 µM; with Ramos [23], 18.1 µM.

Source of the values: ChEMBL document CHEMBL3992502, “Structural optimization of diphenylpyrimidine derivatives (DPPYs) as potent Bruton's tyrosine kinase (BTK) inhibitors with improved activity toward B leukemia cell lines” (Eur J Med Chem, 2017).
